Test results published in PubChem BioAssay (NCI).
Values joined by “and” are separate entries in the source; they are usually repeats but may differ in a detail not shown here. Identical values can stand only once.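 Grown in 96-well plates, cells were treated for 48 hours with each compound at five concentrations. Insufficient inhibition: endpoint recorded as highest concentration tested. GI50: concentration for 50% inhibition of growth. TGI: concentration producing complete growth inhibition.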

Tests used:
Experiment in all cases: inhibition of tumour cell growth, NCI panel, 48 h
[1] = tested on: SF-295 CNS
[2] = tested on: RXF 393 renal
[3] = tested on: NCI-H226 lung
[4] = tested on: SW-620 colon
[5] = tested on: OVCAR-5 ovarian
[6] = tested on: SK-MEL-28 melanoma
[7] = tested on: NCI/ADR-RES ovarian
[8] = tested on: HT29 colon
[9] = tested on: OVCAR-3 ovarian
[10] = tested on: SF-268 CNS

## Cc1ncc(C(=O)Nc2ccc(CN3CCN(C)CC3)c(C(F)(F)F)c2)cc1C#Cc1cnc(NC2CC2)c2ncccc12
[1]
  GI50: 0.747 µM
  TGI: 1.68 µM
[2]
  GI50: 0.606 µM
  TGI: 1.1 µM
[3]
  GI50: 2.1 µM
  TGI: 6.46 µM
[4]
  GI50: 0.714 µM
  TGI: 1.33 µM
[5]
  GI50: 0.668 µM
  TGI: 1.32 µM
[6]
  GI50: 0.641 µM
  TGI: 1.18 µM
[7]
  GI50: 2.32 µM
  TGI: 5.28 µM
[8]
  GI50: 0.474 µM
  TGI: 1.31 µM
[9]
  GI50: 0.693 µM
  TGI: 1.28 µM
[10]
  GI50: 0.755 µM
  TGI: 1.48 µM

## CCSc1nc(N)c2cn[nH]c2n1
[1]
  GI50: 32.1 µM
  TGI: 85.3 µM
[2]
  GI50: 13.3 µM
  TGI: 35.5 µM
[3]
  GI50: 16.9 µM
  TGI: 57.1 µM
[4]
  GI50: 31.7 µM
  TGI: > 100 µM
[5]
  GI50: 21.8 µM
  TGI: 63.1 µM
[6]
  GI50: 33.2 µM
  TGI: > 100 µM
[7]
  GI50: 28.4 µM
  TGI: 85.6 µM
[8]
  GI50: 29.4 µM
  TGI: 81.9 µM
[9]
  GI50: 22.1 µM
  TGI: 72.1 µM
[10]
  GI50: 25.3 µM
  TGI: 74.1 µM

## NC(=O)C1(N2CCCCC2)CCN(CCCC(=O)c2ccc(F)cc2)CC1
[1]
  GI50: 2.7 µM
  TGI: > 100 µM
[2]
  GI50: 2.32 µM
  TGI: 7.38 µM
[3]
  GI50: 2.34 µM
  TGI: 8.81 µM
[4]
  GI50: 0.173 µM
  TGI: > 100 µM
[5]
  GI50: 6.96 µM
  TGI: > 100 µM
[6]
  GI50: 1.08 µM
  TGI: > 100 µM
[7]
  GI50: 29 µM
  TGI: > 100 µM
[8]
  GI50: 0.818 µM
  TGI: > 20 µM
[9]
  GI50: 0.117 µM
  TGI: 1.58 µM
[10]
  GI50: 2.6 µM
  TGI: > 70.9 µM

## Cn1c2ccccc2c2c(=O)c3ccccc3[nH]c21
[1]
  GI50: 82.8 µM
  TGI: > 100 µM
[2]
  GI50: 54 µM
  TGI: > 100 µM
[3]
  GI50: 38.8 µM
  TGI: > 100 µM
[4]
  GI50: 40.7 µM
  TGI: > 100 µM
[5]
  GI50: 30.8 µM
  TGI: > 100 µM
[6]
  GI50: > 100 µM
  TGI: > 100 µM
[7]
  GI50: 43.7 µM
  TGI: > 100 µM
[8]
  GI50: 54 µM
  TGI: > 100 µM
[9]
  GI50: > 100 µM
  TGI: > 100 µM
[10]
  GI50: 25 µM
  TGI: > 100 µM

## O=C(c1ccc2ccccc2c1)c1c(C(F)(F)F)n([O-])c2ccc(Cl)cc2[n+]1=O
[1]
  GI50: 1.66 µM
  TGI: 3.08 µM
[2]
  GI50: 0.425 µM
  TGI: 1.4 µM
[3]
  GI50: 1.82 µM
  TGI: 3.56 µM
[4]
  GI50: 1.41 µM
  TGI: 2.7 µM
[5]
  GI50: 1.87 µM
  TGI: 3.58 µM
[6]
  GI50: 1.63 µM
  TGI: 3.02 µM
[7]
  GI50: 1.89 µM
  TGI: 3.86 µM
[8]
  GI50: 1.52 µM
  TGI: 2.93 µM
[9]
  GI50: 1.32 µM
  TGI: 2.62 µM
[10]
  GI50: 1.04 µM
  TGI: 2.33 µM

## COc1ccc(CC(C)C(C)Cc2ccc(OC)c(OC)c2)cc1OC (stereo not drawn)
[1]
  GI50: 642 µM
  TGI: > 1400 µM
[2]
  GI50: 255 µM
  TGI: 950 µM
[3]
  GI50: 908 µM
  TGI: > 1400 µM
[4]
  GI50: > 1400 µM
  TGI: > 1400 µM
[5]
  GI50: > 1400 µM
  TGI: > 1400 µM
[6]
  GI50: > 1400 µM
  TGI: > 1400 µM
[7]
  GI50: > 1400 µM
  TGI: > 1400 µM
[8]
  GI50: > 1400 µM
  TGI: > 1400 µM
[9]
  GI50: > 1400 µM
  TGI: > 1400 µM
[10]
  GI50: > 1400 µM
  TGI: > 1400 µM

## CC1(C)CC[C@H](C2=CC(=O)c3c(O)ccc(O)c3C2=O)O1
[1]
  GI50: 8.48 µM and 2.4 µM and 3.24 µM
  TGI: 22.1 µM and 6.73 µM and 8.11 µM
[2]
  GI50: 1.39 µM and 2.02 µM and 0.271 µM
  TGI: 2.93 µM and 3.82 µM and 0.604 µM
[3]
  GI50: 5.01 µM and 1.79 µM and 0.611 µM
[4]
  GI50: 0.66 µM and 0.374 µM and 0.0996 µM
  TGI: 1.67 µM and 1.64 µM and 0.229 µM
[5]
  GI50: 4.43 µM and 2 µM and 1.91 µM
  TGI: 8.24 µM and 3.56 µM and 3.57 µM
[6]
  GI50: 2.17 µM and 0.979 µM and 0.571 µM
  TGI: 5.43 µM and 2.15 µM and 1.16 µM
[7]
  TGI: 12 µM
[8]
  GI50: 3.17 µM and 1.72 µM and 0.773 µM
  TGI: 7.29 µM and 3.63 µM and 1.83 µM
[9]
  GI50: 2.23 µM and 1.64 µM and 0.669 µM
  TGI: 4.87 µM and 3.02 µM and 1.61 µM
[10]
  GI50: 3.54 µM and 2.19 µM and 1.01 µM
  TGI: 10.3 µM and 6.27 µM and 6.67 µM

## COCCOCCOCc1n(Cc2ccc3ccccc3n2)c2ccccc2[n+]1Cc1ccc2ccccc2c1
[1]
  GI50: 0.804 µM
  TGI: 2.58 µM
[2]
  GI50: 1.68 µM
  TGI: 4.46 µM
[3]
  GI50: 0.875 µM
  TGI: 4.83 µM
[4]
  GI50: 0.769 µM
  TGI: 5.37 µM
[5]
  GI50: 0.557 µM
  TGI: 7.43 µM
[6]
  GI50: 0.484 µM
  TGI: 1.88 µM
[7]
  GI50: 23.4 µM
  TGI: > 100 µM
[8]
  GI50: 0.292 µM
  TGI: 1.43 µM
[9]
  GI50: 0.358 µM
  TGI: 1.52 µM
[10]
  GI50: 0.464 µM
  TGI: 1.85 µM

## O=C1C(SCCO)=C(SCCO)C(=O)c2ccccc21
[1]
  TGI: 2.97 µM
[2]
  TGI: 2.8 µM
[3]
  TGI: 3.38 µM
[4]
  TGI: 1.47 µM
[5]
  TGI: 2.81 µM
[6]
  TGI: 3.18 µM
[7]
  TGI: 2.53 µM
[8]
  TGI: 3.98 µM
[9]
  TGI: 3.22 µM
[10]
  TGI: 3.21 µM

## CNC(=O)c1cc2c(Oc3ccc(NC(=O)C4(C(=O)Nc5ccc(F)cc5)CC4)cc3)ccnc2cc1OC
[1]
  GI50: 0.177 µM
  TGI: 6.26 µM
[2]
  GI50: 1.58 µM
  TGI: 3.53 µM
[3]
  GI50: 2.47 µM
  TGI: 10.7 µM
[4]
  GI50: 2.64 µM
  TGI: > 100 µM
[5]
  GI50: 3.17 µM
  TGI: > 100 µM
[6]
  GI50: 3.68 µM
  TGI: > 100 µM
[7]
  GI50: 3.56 µM
  TGI: > 100 µM
[8]
  GI50: 2.42 µM
  TGI: > 100 µM
[9]
  GI50: 3.48 µM
  TGI: > 100 µM
[10]
  GI50: 3.06 µM
  TGI: > 100 µM

## CC(=O)N[C@H](C(=O)N[C@@H](CCCNC(=N)N)C(=O)N[C@@H](CCCCN)C(=O)N[C@@H](CCCNC(=N)N)C(=O)N[C@]1(C)CCCCCC/C=C\CCC[C@@](C)(C(=O)N[C@@H](CCCNC(=N)N)C(=O)N[C@@H](CCC(=O)O)C(=O)N[C@@H](CC(C)C)C(=O)N[C@H](C(=O)N[C@@H](CCC(=O)O)C(N)=O)C(C)C)NC(=O)[C@H](CCC(N)=O)NC(=O)[C@H](CC(C)C)NC(=O)[C@H](CC(C)C)NC(=O)[C@H](CCCNC(=N)N)NC(=O)[C@H](CCCNC(=N)N)NC(=O)[C@H](CC(C)C)NC1=O)C(C)C
[1]
  GI50: 4.4 µM
  TGI: 30.1 µM
[2]
  GI50: 1.34 µM
  TGI: 4.77 µM
[3]
  GI50: 2.43 µM
  TGI: 28.7 µM
[4]
  GI50: 7.84 µM
  TGI: 20.2 µM
[5]
  GI50: 11.5 µM
  TGI: 41.2 µM
[6]
  GI50: 2.64 µM
  TGI: 21.7 µM
[7]
  GI50: 6.82 µM
  TGI: > 50 µM
[8]
  GI50: 7.91 µM
  TGI: 41.3 µM
[9]
  GI50: 6.16 µM
  TGI: 19.2 µM
[10]
  GI50: 1.47 µM
  TGI: 4.58 µM

## CC1(C)N=C(N)N=C(N)N1c1ccc(OCC(=O)Nc2ccccc2)c(Cl)c1
[1]
  GI50: 0.702 µM
  TGI: > 100 µM
[2]
  GI50: > 87.1 µM
  TGI: > 100 µM
[3]
  GI50: > 71.6 µM
  TGI: > 100 µM
[4]
  GI50: 0.456 µM
  TGI: > 100 µM
[5]
  GI50: > 100 µM
  TGI: > 100 µM
[6]
  GI50: > 58.8 µM
  TGI: > 100 µM
[7]
  GI50: > 100 µM
  TGI: > 100 µM
[8]
  GI50: 0.333 µM
  TGI: > 100 µM
[9]
  GI50: 8.51 µM
  TGI: > 100 µM
[10]
  GI50: 0.677 µM
  TGI: > 100 µM
